Measurements taken from patent US6812365B2, “Disulfone reagents and methods of preparing and using same” (The Arizona Disease Control Research Commission, priority 1999, dated 2004).

Molecular target: T1, HIV integrase (HIV-IN) (Human immunodeficiency virus type 1 group M subtype B, UniProt P04585)
T1 construct: employs a purified recombinant integrase
Assay: in vitro HIV integrase inhibition assay (3′-processing and DNA strand transfer, purified recombinant integrase, 21-mer duplex oligonucleotide substrate)
Format: biochemical
Settings: cell-free assay, 50% reduction in enzymatic activity; read-out: IC50 values against HIV-IN
Excerpt: Generally, a particular compound's HIV integrase inhibitory potency can be measured by observing the effects of that compound on the integrase enzyme's catalytic activity. HIV integrase has two catalytic functions: (1) 3′-processing, which removes a dinucleotide unit from the 3′-ends of viral DNA; and (2) DNA strand transfer, which […]. These two catalytic steps can be measured in an in vitro assay which employs a purified recombinant integrase and a 21-mer duplex oligonucleotide substrate corresponding to the U5 region of the HIV long terminal repeat (LTR) sequence. This assay permits simultaneous measurement of inhibition constants for both 3′-processing and DNA strand transfer. Inhibitory concentrations (i.e., IC50 values) are determined based on an observed 50% reduction in enzymatic activity in cell-free assays. (See e.g., Zhao H., Neamati N., Mazumder A., Sunder S., Pommier Y., ad Burke T. “Arylamide Inhibitors of HIV-1 Integrase” J. Med. Chem. 1997, 40, 1186-1194).
Compound 76 (an acetylated derivative of Compound 80), Compound 78 (a symmetrical, hydroxylated derivative of Compound 80), and Compound 82 (an acetylated and methylated derivative of Compound 80) have been prepared in accordance with the various aspects of the present invention and have been tested in accordance with the above-described known method of testing HIV-IN inhibition.

Structure (SMILES) | IC50 [µM]
CC(=O)Oc1ccc(C=CS(=O)(=O)CS(=O)(=O)C=Cc2ccc(OC(C)=O)c(OC(C)=O)c2)cc1OC(C)=O [Compound 76] | 73 to 77
O=S(=O)(C=Cc1ccc(O)c(O)c1)CS(=O)(=O)C=Cc1ccc(O)c(O)c1 [Compound 78] | 4 to 6
COc1cc(C=CS(=O)(=O)CS(=O)(=O)C=Cc2cc(OC)c(OC(C)=O)c(OC(C)=O)c2)cc(OC(C)=O)c1OC(C)=O [Compound 82] | 4
